Results reported in the NIST ThermoML archive (doi:10.1016/j.tca.2008.05.002).

Legend:
[1] = molar heat capacity at constant pressure; settings: 101.33 kPa, Small (less than 1 g) adiabatic calorimetry
[2] = Molar enthalpy of transition or fusion; settings: Adiabatic calorimetry
[3] = for molar entropy: 101.33 kPa, Small (less than 1 g) adiabatic calorimetry; for Triple point temperature: Adiabatic calorimetry

CCCCn1cc[n+](C)c1.O=[N+]([O-])[O-] [1-butyl-3-methylimidazolium nitrate]
Settings | molar entropy, [3] [J/K/mol] | molar heat capacity at constant pressure, [1] [J/K/mol]
5 K, Crystal 4 | 0.18 | 0.536
10 K, Crystal 4 | 1.52 | 4.46
15 K, Crystal 4 | 4.64 | 11.93
20 K, Crystal 4 | 9.379 | 21.74
25 K, Crystal 4 | 15.39 | 32.7
30 K, Crystal 4 | 22.34 | 43.8
35 K, Crystal 4 | 29.9 | 54.44
40 K, Crystal 4 | 37.83 | 64.5
45 K, Crystal 4 | 45.98 | 73.88
50 K, Crystal 4 | 54.22 | 82.59
55 K, Crystal 4 | 62.47 | 90.63
60 K, Crystal 4 | 70.67 | 97.94
70 K, Crystal 4 | 86.8 | 111.1
80 K, Crystal 4 | 102.4 | 122.4
90 K, Crystal 4 | 117.4 | 132.2
100 K, Crystal 4 | 131.8 | 141
110 K, Crystal 4 | 145.6 | 149.2
120 K, Crystal 4 | 158.9 | 156.9
130 K, Crystal 4 | 171.8 | 164.4
140 K, Crystal 4 | 184.2 | 171.8
150 K, Crystal 4 | 196.3 | 179.1
160 K, Crystal 4 | 208.1 | 186.5
170 K, Crystal 4 | 219.7 | 194.1
180 K, Crystal 4 | 231 | 202
190 K, Crystal 4 | 242.1 | 210.1
200 K, Crystal 4 | 253.1 | 218.6
210 K, Crystal 4 | 264 | 227.3
220 K, Crystal 4 | 274.7 | 236.2
230 K, Crystal 4 | 285.4 | 245.1
240 K, Crystal 4 | 296.1 | 254
250 K, Crystal 4 | 306.6 | 262.9
260 K, Crystal 4 | 317.1 | 271.8
270 K, Crystal 4 | 327.5 | 280.7
278.2 K, Crystal 3 | 343.5 | 288
278.2 K, Crystal 4 | 336 | 288
280 K, Crystal 3 | 345.3 | 289.6
285 K, Crystal 3 | 350.5 | 294.1
288.1 K, Crystal 2 | 354.9 | 296.8
288.1 K, Crystal 3 | 353.7 | 296.8
290 K, Crystal 2 | 356.9 | 298.6
292.2 K, Crystal 1 | 359.7 | 300.5
292.2 K, Crystal 2 | 359.2 | 300.5
295 K, Crystal 1 | 362.6 | 303
298.15 K, Crystal 1 | 365.8 | 305.8
300 K, Crystal 1 | 367.7 | 307.5
309.16 K, Crystal 1 | 377.1 | 315.6
309.16 K, Liquid | 435.3 | 357.7
310 K, Liquid | 436.3 | 358
320 K, Liquid | 447.7 | 361.8
330 K, Liquid | 458.9 | 365.8
340 K, Liquid | 469.9 | 369.8
350 K, Liquid | 480.7 | 374.1
360 K, Liquid | 491.2 | 378.5
370 K, Liquid | 501.6 | 383

Settings | Molar enthalpy of transition or fusion, Crystal 1 [kcal/mol] | Molar enthalpy of transition or fusion, Crystal 2 [kcal/mol] | Molar enthalpy of transition or fusion, Crystal 3 [kcal/mol] | Molar enthalpy of transition or fusion, Crystal 4 [kcal/mol] | Triple point temperature, Crystal 1 [K] | Triple point temperature, Crystal 2 [K] | Triple point temperature, Crystal 3 [K] | Triple point temperature, Crystal 4 [K]
[2] | 4.3 | 0.0359 | 0.086 | 0.497 | – | – | – | –
[3] | – | – | – | – | 309.16 | 292.2 | 288.1 | 278.8
